Reference: publication PMC8576102, “Structure–Activity Relationship of Novel Second-Generation Synthetic Cathinones: Mechanism of Action, Locomotion, Reward, and Immediate-Early Genes” (Frontiers in Pharmacology, 2021)

Columns and labels:
[1] = system: T1, SERT; test: Batch release assay, [3H]5-HT release from SERT-expressing HEK293 cells; assay type: cell-based, human
T1 construct: YFP (yellow-fluorescent protein); expressed in transfected cells
Procedure: (§1) Human embryonic kidney (HEK293) cells stably expressing the yellow-fluorescent protein (YFP)-tagged version of the human isoforms of SERT (abbreviated as SERT) and DAT (abbreviated as DAT) were used for the uptake inhibition and release assays. The generation and maintenance of stable, monoclonal cell lines expressing these transporters was conducted as described by ([Mayer F. P. et al., 2016]; [Mayer et al., 2016 FP.]). HEK293 cells were maintained in DMEM supplemented with heat-inactivated 10% FBS, 100 µg/100 ml streptomycin, 100 U/ml penicillin, and Geneticin (G418; 50 μg/ml) and cultured in a humidified atmosphere (5% CO2, 37°C). The cells were seeded at a density of 0.36 million cells/well onto 96-well plates previously coated (24 h) with poly-D-lysine (PDL).
HEK293 cells expressing the transporter of interest were preloaded with the tritiated substrate 0.08 μM [^3H]5-HT (SERT) or 0.1 μM [^3H]MPP^+ (DAT) in KHB (50 μL/well) for 20 min (5% CO2, 37°C). Subsequently, the cells were washed three times using KHB (200 μL/well) at room temperature. Afterward, a pre-incubation step of 10 min in KHB or in KHB + monensin (Mon) 10 μM was done. […] To determine the specificity of drug-induced reverse transport, selective transporter inhibitors 0.05 μM paroxetine (SERT) and 0.5 μM of GBR12909 (DAT) and effective releasers 10 μM p-chloroamphetamine (PCA; SERT) and 10 μM d-amphetamine (DAT) were used (Supplementary Figure S1). The resulting supernatant was collected and transferred to a new well every 2 min (four times for KHB/Mon and five times for each tested compound). Three independent experiments were performed in duplicate. Liquid scintillation cocktail was added to the wells with remaining cells (200 μL) and with the transferred supernatant (100 μL) and to the wells used for total uptake and activity measurements (200 μL). Total radioactivity present in the supernatant and in the remaining cells was set as 100%, and the amount of [^3H] substrate present in the supernatant was expressed as percentage of the total.
(§2) Data were expressed as mean ± SEM. Competition curves were plotted and fitted by non-linear regression, and data were best fitted to a sigmoidal dose-response curve to obtain an IC50 value. 1/DAT IC50: 1/SERT IC50 was used to calculate transporter ratios. Data from batch release assays were statistically analyzed with a mixed-effects model, employing Šidák’s correction for multiple comparisons. One-way/two-way ANOVA or two-way ANOVA of repeated measures, followed by Tukey’s or Dunnett’s post hoc test, was also used when appropriate. The α error probability was set at 0.05 (p < 0.05). The size group for each experiment and statistical results are shown in the corresponding legend of figures. Statistical calculations were performed using GraphPad Prism (GraphPad Software, San Diego, CA, United States).

[2] = system: Arc mRNA; test: Arc mRNA expression (qPCR) in ventral and dorsal striatum; assay type: in vivo, mice; settings: 10 mg/kg i.p., 120 min after administration, vs saline
Procedure: Mice were injected with an acute dose of 10 mg/kg i.p. of the corresponding synthetic cathinone or saline solution. The dose was chosen according to the behavioral results obtained since it caused significant response in both CPP and HLA tests in all compounds tested. 30 min or 2 h post-administration, mice were sacrificed by cervical dislocation and the VS, DS, and mPFC were dissected out ([Paxinos and Franklin, 2004]) using a mouse brain acrylic matrix (Agnthos, Sweden) and stored at -80°C until use. Total RNA was isolated following a standard TRIsure reagent–chloroform extraction protocol ([Duart-Castells et al., 2019]).
Reverse transcription polymerase chain reaction (RT-PCR) was carried out to obtain complementary DNA (cDNA) by using the High Capacity cDNA Reverse Transcription Kit (Applied Biosystems) and the Veriti thermal cycler (Applied Biosystems, Foster, CA, United States). Synthesis of cDNA was obtained by mixing 1,000 ng of total RNA with the corresponding volumes of each kit reagent to a final volume of 20 μL. Quantitative real-time polymerase chain reaction (qPCR) was performed by using the StepOnePlus^TM Real-Time PCR System and TaqMan PCR Master Mix (Applied Biosystems, Foster, CA, United States). 25 ng of cDNA was loaded in a final volume of 20 μL containing sequence-specific primers and TaqMan probes (Mm01204954_g1 for Arc, Mm04230607_s1 for bdnf, Mm00487425_m1 for c-fos, and Mm00607939_s1 for β-actin). Each sample was tested in duplicate. qPCR conditions were 2 min at 50°C, 10 min at 95°C, 40 cycles/15 s at 95°C, and 60 s at 60°C. Changes in gene expression were defined by using the comparative Ct method for each experimental sample. Gene expression was normalized by using the mean of Ct values of the housekeeping gene β-actin.

[3] = biological target: T2, hSERT (Homo sapiens, UniProt P31645); test: Uptake inhibition assay, [3H]5-HT uptake in transfected HEK293 cells; assay type: cell-based
T2 construct: YFP (yellow-fluorescent protein); expressed in transfected cells
T2 sequence (P31645 whole entry): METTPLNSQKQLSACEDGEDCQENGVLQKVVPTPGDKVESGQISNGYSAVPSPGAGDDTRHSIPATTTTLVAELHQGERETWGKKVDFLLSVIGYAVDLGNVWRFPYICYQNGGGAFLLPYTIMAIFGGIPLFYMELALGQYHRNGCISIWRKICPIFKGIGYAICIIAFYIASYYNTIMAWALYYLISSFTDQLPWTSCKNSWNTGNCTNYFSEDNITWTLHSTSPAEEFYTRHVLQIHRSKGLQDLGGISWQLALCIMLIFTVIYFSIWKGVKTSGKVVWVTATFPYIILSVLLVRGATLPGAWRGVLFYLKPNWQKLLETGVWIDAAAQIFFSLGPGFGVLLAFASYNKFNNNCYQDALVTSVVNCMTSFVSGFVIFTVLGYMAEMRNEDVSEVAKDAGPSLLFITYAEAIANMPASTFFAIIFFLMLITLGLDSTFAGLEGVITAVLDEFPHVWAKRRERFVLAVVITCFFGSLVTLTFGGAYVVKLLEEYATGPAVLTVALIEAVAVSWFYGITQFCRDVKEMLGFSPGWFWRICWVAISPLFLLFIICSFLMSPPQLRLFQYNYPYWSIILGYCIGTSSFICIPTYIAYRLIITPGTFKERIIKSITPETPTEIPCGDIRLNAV
Procedure: as §1
The medium was removed and immediately replaced with 200 µL/well of Krebs-HEPES buffer (KHB; 10 mM HEPES, 120 mM NaCl, 3 mM KCl, 2 mM CaCl2·2H2O, 2 mM MgCl2·6H2O, 20 mM D-glucose; pH 7.3). The cells were pre-incubated with different concentrations of the drug in KHB at a final volume of 50 µL/well for 5 min (DAT, SERT). Immediately after, the pre-incubation solution was removed and the cells were incubated with the tritiated substrates, 0.02 µM [^3H]MPP^+ for the DAT (3 min) and 0.1 µM [^3H]5-HT for the SERT (1 min), along with different concentrations of the drug in KHB. Finally, the [^3H]substrate was removed and the cells were washed with ice-cold KHB followed by the addition of sodium dodecyl sulfate (SDS) 1%. The lysate was then added to the scintillation fluid, and the radioactivity was quantified with a beta-scintillation counter (Perkin Elmer, Waltham, MA, United States).
The uptake in the absence of the drug compound was normalized to 100%, being the percentage of the uptake in the presence of different concentrations of the drug expressed as a percentage thereof. 3–4 independent experiments were performed in duplicate.
as §2

[4] = system: Swiss CD-1 mice; test: Horizontal locomotor activity (HLA); assay type: in vivo

CCCC(NCC)C(=O)c1ccc2c(c1)OCO2 (stereo not drawn) [N-Ethyl-pentylone, 3’,4’-methylendioxy-α-ethylaminovalerophenone]
[3H]5-HT release at SERT-expressing HEK293 cells, max. ([1]; compound close to its IC50 (NEP 6 µM)): ≈ 5 % total cpm | [3H]5-HT release at the SERT (in words) ([1]; compound close to its IC50, KHB vs KHB + monensin 10 µM): smallest | Arc gene expression in the DS, 120 min [2]: significant increase | Arc gene expression in the VS, 120 min [2]: significant increase | IC50 [3]: 6.37 ± 0.09 µM | HLA vs saline at the lowest dose ([4]; 3 mg/kg i.p., 60 min): increase | Persistence of the increase in locomotor activity ([4]; 10 mg/kg i.p.): more than 1 hour | HLA after 30 mg/kg compared to the medium dose (10 mg/kg) ([4]; 30 mg/kg vs 10 mg/kg i.p.): significant decrease
